Test results published in patent US10219516B2, “Molecules having pesticidal utility, and intermediates, compositions, and processes, related thereto” (priority 2015, dated 2019).

Columns and labels:
Format in all cases: in vivo
[1] = test system: Beet Armyworm (Spodoptera exigua, LAPHEG); test: Bioassay on Beet Armyworm (BAW), 128-well diet tray assay; conditions: Beet Armyworm, 128-well diet tray assay, read-out: BAW rating
Outline: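 Diet in each of eight wells received 50 μg/cm^2 of test molecule (90:10 acetone-water, dried), then one to five second-instar larvae were added. Mortality (%) was scored after five to seven days at 25° C. under 14:10 light-dark and averaged across the wells.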

[2] = test system: Cabbage Looper (Trichoplusia ni, TRIPNI); test: Bioassay on Cabbage Looper (CL), 128-well diet tray assay; conditions: Trichoplusia ni; Cabbage Looper, 128-well diet tray assay; read-out: CL rating
Outline: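 Test molecule is dissolved in 90:10 acetone-water and applied at 50 μg/cm^2 onto artificial diet, then dried. One to five second-instar larvae go into each of eight wells. Trays, sealed but vented, stay at 25° C., 14:10 light-dark, five to seven days, after which mortality is averaged.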

[3] = test system: Yellow Fever Mosquito (Aedes aegypti, AEDSAE); test: Bioassay on Yellow Fever Mosquito (YFM), 96-well plate larval assay; conditions: Yellow Fever Mosquito, 96-well plate larval assay
Outline: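 Each well was scored for mortality after 3 days at room temperature under a non-evaporative lid. Test molecules came from DMSO masters (4000 ppm stock) diluted with water/acetone 90:10 and dispensed into six replicate plates, which were then infested with roughly 1-day-old larvae in liver-powder water.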

With C=C(F)c1ccc([C@H]2[C@H](C(=O)Nc3ccc(Cl)c(C(=O)Nc4ccc(F)cc4)c3)C2(Cl)Cl)cc1Cl (relative stereo) [F382, 2-Chloro-5-(trans-2,2-dichloro-3-(3-chloro-4-(1-fluorovinyl)phenyl)cyclopropane-1-carboxamido)-N-(4-fluorophenyl)benzamide] the pest or weed control at 50 µg/cm2 [1] was 50 to 100%, the pest or weed control at 50 µg/cm2 [2] was 50 to 100% and the YFM rating [3] was “A (80-100)”.
For C=C(F)c1ccc([C@H]2[C@H](C(=O)Nc3ccc(Cl)c(C(=O)Nc4ccc(F)cc4F)c3)C2(Cl)Cl)cc1Cl (relative stereo) [F383, 2-Chloro-5-(trans-2,2-dichloro-3-(3-chloro-4-(1-fluorovinyl)phenyl)cyclopropane-1-carboxamido)-N-(2,4-difluorophenyl)benzamide], the pest or weed control at 50 µg/cm2 [1] was 50 to 100%, the pest or weed control at 50 µg/cm2 [2] was 50 to 100% and the YFM rating [3] was “A (80-100)”.
With C=C(F)c1cc([C@H]2[C@H](C(=O)Nc3ccc(Cl)c(C(=O)Nc4ccc(F)cc4)c3)C2(Cl)Cl)ccc1Cl (relative stereo) [F384, 2-Chloro-5-(trans-2,2-dichloro-3-(4-chloro-3-(1-fluorovinyl)phenyl)cyclopropane-1-carboxamido)-N-(4-fluorophenyl)benzamide] the pest or weed control at 50 µg/cm2 [1] was 50 to 100%, the pest or weed control at 50 µg/cm2 [2] was 50 to 100% and the YFM rating [3] was “A (80-100)”.
C=C(F)c1cc([C@H]2[C@H](C(=O)Nc3ccc(Cl)c(C(=O)Nc4ccc(F)cc4F)c3)C2(Cl)Cl)ccc1Cl (relative stereo) [F385, 2-Chloro-5-(trans-2,2-dichloro-3-(4-chloro-3-(1-fluorovinyl)phenyl)cyclopropane-1-carboxamido)-N-(2,4-difluorophenyl)benzamide] was tested, and the pest or weed control at 50 µg/cm2 [1] was 50 to 100%, the pest or weed control at 50 µg/cm2 [2] was 50 to 100% and the YFM rating [3] was “A (80-100)”.
For C=C(F)c1cc(Cl)cc([C@H]2[C@H](C(=O)Nc3ccc(Cl)c(C(=O)Nc4ccc(F)cc4F)c3)C2(Cl)Cl)c1 (relative stereo) [F386, 2-Chloro-5-(trans-2,2-dichloro-3-(3-chloro-5-(1-fluorovinyl)phenyl)cyclopropane-1-carboxamido)-N-(2,4-difluorophenyl)benzamide], the pest or weed control at 50 µg/cm2 [1] was 50 to 100%, the pest or weed control at 50 µg/cm2 [2] was 50 to 100% and the YFM rating [3] was “A (80-100)”.
C=C(F)c1cc(Cl)cc([C@H]2[C@H](C(=O)Nc3ccc(Cl)c(C(=O)Nc4ccc(F)cc4C#N)c3)C2(Cl)Cl)c1 (relative stereo) [F387, 2-Chloro-N-(2-cyano-4-fluorophenyl)-5-(trans-2,2-dichloro-3-(3-chloro-5-(1-fluorovinyl)phenyl)cyclopropane-1-carboxamido)benzamide] was tested, and the pest or weed control at 50 µg/cm2 [1] was 50 to 100%, the pest or weed control at 50 µg/cm2 [2] was 50 to 100% and the YFM rating [3] was “A (80-100)”.
With O=C(Nc1ncc(F)c(I)c1F)c1cc(NC(=O)[C@H]2[C@H](c3cc(Cl)cc(Cl)c3)C2(Cl)Cl)ccc1Cl (relative stereo) [F388, 2-Chloro-5-(trans-2,2-dichloro-3-(3,5-dichlorophenyl)cyclopropane-1-carboxamido)-N-(3,5-difluoro-4-iodopyridin-2-yl)benzamide] the pest or weed control at 50 µg/cm2 [1] was 50 to 100%, the pest or weed control at 50 µg/cm2 [2] was 50 to 100% and the YFM rating [3] was “A (80-100)”.
C=Cc1ccc([C@H]2[C@H](C(=O)Nc3ccc(Cl)c(C(=O)Nc4ccc(F)cc4F)c3)C2(Cl)Cl)cc1F (relative stereo) [F389, 2-Chloro-5-(trans-2,2-dichloro-3-(3-fluoro-4-vinylphenyl)cyclopropane-1-carboxamido)-N-(2,4-difluorophenyl)benzamide] was tested, and the pest or weed control at 50 µg/cm2 [1] was 50 to 100%, the pest or weed control at 50 µg/cm2 [2] was 50 to 100% and the YFM rating [3] was “A (80-100)”.
With C=Cc1cc([C@H]2[C@H](C(=O)Nc3ccc(Cl)c(C(=O)Nc4ccc(F)cc4F)c3)C2(Cl)Cl)ccc1F (relative stereo) [F390, 2-Chloro-5-(trans-2,2-dichloro-3-(4-fluoro-3-vinylphenyl)cyclopropane-1-carboxamido)-N-(2,4-difluorophenyl)benzamide] the pest or weed control at 50 µg/cm2 [1] was 50 to 100%, the pest or weed control at 50 µg/cm2 [2] was 50 to 100% and the YFM rating [3] was “A (80-100)”.
C=Cc1ccc([C@H]2[C@H](C(=O)Nc3ccc(Cl)c(C(=O)Nc4ccc(F)cc4F)c3)C2(Cl)Cl)cc1C(F)(F)F (relative stereo) [F391, 2-Chloro-5-(trans-2,2-dichloro-3-(3-(trifluoromethyl)-4-vinylphenyl)cyclopropane-1-carboxamido)-N-(2,4-difluorophenyl)benzamide] was tested, and the pest or weed control at 50 µg/cm2 [1] was 50 to 100%, the pest or weed control at 50 µg/cm2 [2] was 50 to 100% and the YFM rating [3] was “A (80-100)”.
With C=Cc1cc([C@H]2[C@H](C(=O)Nc3ccc(Cl)c(C(=O)Nc4ccc(F)cc4F)c3)C2(Cl)Cl)ccc1C(F)(F)F (relative stereo) [F392, 2-Chloro-5-(trans-2,2-dichloro-3-(4-(trifluoromethyl)-3-vinylphenyl)cyclopropane-1-carboxamido)-N-(2,4-difluorophenyl)benzamide] the pest or weed control at 50 µg/cm2 [1] was 50 to 100%, the pest or weed control at 50 µg/cm2 [2] was 50 to 100% and the YFM rating [3] was “A (80-100)”.
C=Cc1c(F)cnc(NC(=O)c2cc(NC(=O)[C@H]3[C@H](c4cc(Cl)cc(Cl)c4)C3(Cl)Cl)ccc2Cl)c1F (relative stereo) [F393, trans-2-chloro-5-(2,2-dichloro-3-(3,5-dichlorophenyl)cyclopropane-1-carboxamido)-N-(3,5-difluoro-4-vinylpyridin-2-yl)benzamide] was tested, and the pest or weed control at 50 µg/cm2 [1] was 50 to 100%, the pest or weed control at 50 µg/cm2 [2] was 50 to 100% and the YFM rating [3] was “A (80-100)”.
For C=C(F)c1c(F)cnc(NC(=O)c2cc(NC(=O)[C@H]3[C@H](c4cc(Cl)cc(Cl)c4)C3(Cl)Cl)ccc2Cl)c1F (relative stereo) [F394, 2-Chloro-5-(trans-2,2-dichloro-3-(3,5-dichlorophenyl)cyclopropane-1-carboxamido)-N-(3,5-difluoro-4-(1-fluorovinyl)pyridin-2-yl)benzamide], the pest or weed control at 50 µg/cm2 [1] was 50 to 100%, the pest or weed control at 50 µg/cm2 [2] was 50 to 100% and the YFM rating [3] was “A (80-100)”.
For O=C(Nc1cnc(F)c(Br)c1)c1cc(NC(=O)[C@H]2[C@H](c3cc(Cl)cc(Cl)c3)C2(Cl)Cl)ccc1Cl (relative stereo) [F395, N-(5-Bromo-6-fluoropyridin-3-yl)-2-chloro-5-(trans-2,2-dichloro-3-(3,5-dichlorophenyl)cyclopropane-1-carboxamido)benzamide], the pest or weed control at 50 µg/cm2 [1] was 50 to 100%, the pest or weed control at 50 µg/cm2 [2] was 50 to 100% and the YFM rating [3] was “A (80-100)”.
In the case of Cc1cc(NC(=O)c2cc(NC(=O)[C@H]3[C@H](c4cc(Cl)cc(Cl)c4)C3(Cl)Cl)ccc2Cl)cnc1F (relative stereo) [F396, 2-Chloro-5-(trans-2,2-dichloro-3-(3,5-dichlorophenyl)cyclopropane-1-carboxamido)-N-(6-fluoro-5-methylpyridin-3-yl)benzamide], the pest or weed control at 50 µg/cm2 [1] is reported as 50 to 100%, the pest or weed control at 50 µg/cm2 [2] is reported as 50 to 100% and the YFM rating [3] is reported as “A (80-100)”.
With C=Cc1ccc(NC(=O)c2cc(NC(=O)[C@H]3[C@H](c4cc(Cl)cc(Cl)c4)C3(Cl)Cl)ccc2Cl)nc1F (relative stereo) [F397, 2-Chloro-5-(trans-2,2-dichloro-3-(3,5-dichlorophenyl)cyclopropane-1-carboxamido)-N-(6-fluoro-5-vinylpyridin-2-yl)benzamide] the pest or weed control at 50 µg/cm2 [1] was 50 to 100%, the pest or weed control at 50 µg/cm2 [2] was 50 to 100% and the YFM rating [3] was “A (80-100)”.
With C=C(F)c1ccc(NC(=O)c2cc(NC(=O)[C@H]3[C@H](c4cc(Cl)cc(Cl)c4)C3(Cl)Cl)ccc2Cl)nc1F (relative stereo) [F398, 2-chloro-5-(trans-2,2-dichloro-3-(3,5-dichlorophenyl)cyclopropane-1-carboxamido)-N-(6-fluoro-5-(1-fluorovinyl)pyridin-2-yl)benzamide] the pest or weed control at 50 µg/cm2 [1] was 50 to 100%, the pest or weed control at 50 µg/cm2 [2] was 50 to 100% and the YFM rating [3] was “A (80-100)”.
For C=Cc1cc(NC(=O)c2cc(NC(=O)[C@H]3[C@H](c4cc(Cl)cc(Cl)c4)C3(Cl)Cl)ccc2Cl)cnc1F (relative stereo) [F399, 2-Chloro-5-(trans-2,2-dichloro-3-(3,5-dichlorophenyl)cyclopropane-1-carboxamido)-N-(6-fluoro-5-vinylpyridin-3-yl)benzamide], the pest or weed control at 50 µg/cm2 [1] was 50 to 100%, the pest or weed control at 50 µg/cm2 [2] was 50 to 100% and the YFM rating [3] was “A (80-100)”.
With C=C(F)c1cc(NC(=O)c2cc(NC(=O)[C@H]3[C@H](c4cc(Cl)cc(Cl)c4)C3(Cl)Cl)ccc2Cl)cnc1F (relative stereo) [F400, 2-Chloro-5-(trans-2,2-dichloro-3-(3,5-dichlorophenyl)cyclopropane-1-carboxamido)-N-(6-fluoro-5-(1-fluorovinyl)pyridin-3-yl)benzamide] the pest or weed control at 50 µg/cm2 [1] was 50 to 100%, the pest or weed control at 50 µg/cm2 [2] was 50 to 100% and the YFM rating [3] was “A (80-100)”.
C#Cc1ccc([C@H]2[C@H](C(=O)Nc3ccc(Cl)c(C(=O)Nc4ccc(F)cc4C#N)c3)C2(Cl)Cl)cc1Cl (relative stereo) [F401, 2-chloro-N-(2-cyano-4-fluorophenyl)-5-(trans-2,2-dichloro-3-(3-chloro-4-ethynylphenyl)cyclopropane-1-carboxamido)benzamide] was tested, and the pest or weed control at 50 µg/cm2 [1] was 50 to 100%, the pest or weed control at 50 µg/cm2 [2] was 50 to 100% and the YFM rating [3] was “A (80-100)”.
C#Cc1cc([C@H]2[C@H](C(=O)Nc3ccc(Cl)c(C(=O)Nc4ccc(F)cc4)c3)C2(Cl)Cl)ccc1Cl (relative stereo) [F410, 2-Chloro-5-(trans-2,2-dichloro-3-(4-chloro-3-ethynylphenyl)cyclopropane-1-carboxamido)-N-(4-fluorophenyl)benzamide] was tested, and the pest or weed control at 50 µg/cm2 [1] was 50 to 100%, the pest or weed control at 50 µg/cm2 [2] was 50 to 100% and the YFM rating [3] was “A (80-100)”.
